{"source": "patent US7750040B2", "about": "“Thiophene derivatives” (priority 2004, dated 2010)", "data": [{"target": "recombinant human S1P1 receptor (Homo sapiens, UniProt P21453)", "sequence (P21453 whole entry)": "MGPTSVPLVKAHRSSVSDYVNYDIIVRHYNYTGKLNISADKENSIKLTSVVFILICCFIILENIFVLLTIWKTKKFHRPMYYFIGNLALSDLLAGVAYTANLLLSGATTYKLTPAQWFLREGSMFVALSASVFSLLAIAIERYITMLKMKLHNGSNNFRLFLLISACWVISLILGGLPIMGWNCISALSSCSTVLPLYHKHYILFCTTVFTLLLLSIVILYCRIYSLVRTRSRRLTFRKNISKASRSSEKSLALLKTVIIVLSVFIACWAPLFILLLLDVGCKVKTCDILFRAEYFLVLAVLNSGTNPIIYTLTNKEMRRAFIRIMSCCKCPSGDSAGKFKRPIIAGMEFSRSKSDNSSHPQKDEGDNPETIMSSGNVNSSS", "test": "GTPγS assay to determine EC50 values", "type": "biochemical", "conditions": "35S-GTPγS binding, membrane preparations of CHO cells expressing recombinant human S1P1 receptor", "experimental": "The pH was 7.4. Test compounds are dissolved and diluted in 100% DMSO and pre-incubated at room temperature for 30 min in 150 μl of the above assay buffer, in the absence of ^35S-GTPγS. After addition of 50 μl of ^35S-GTPγS, the assay is incubated for 1 h at room temperature. […] Membrane-bound ^35S-GTPγS is measured with a TopCount from Packard Biosciences.\nSpecific binding is determined by subtracting non-specific binding from maximal binding. Maximal binding is the amount of cpm bound to the Multiscreen plate in the presence of 10 μM of S1P. Non-specific binding is the amount of binding in the absence of an agonist in the assay.", "units": {"EC50": "nM"}, "values": [{"smiles": "COc1cc(OCC(C)O)ccc1CNC(=O)c1sc(C)c2c1C[C@@H]1[C@H]2C1(C)C", "note": "(mixture of isomers) [Example 24, (1aS,5aR)-1,1,2-trimethyl-1,1a,5,5a-tetrahydro-3-thia-cyclopropa[a]pentalene-4-carboxylic acid 4-((R/S)-2-hydroxy-propoxy)-2-methoxy-benzylamide]", "EC50": 164}, {"smiles": "Cc1cc(CNC(=O)c2sc(C)c3c2C[C@@H]2[C@H]3C2(C)C)cc(C)c1OC[C@@H](O)CO", "note": "[Example 5, (1aS,5aR)-1,1,2-trimethyl-1,1a,5,5a-tetrahydro-3-thia-cyclopropa[a]pentalene-4-carboxylic acid 4-((S)-2,3-dihydroxy-propoxy)-3,5-dimethyl-benzylamide]", "EC50": 75}, {"smiles": "COc1cc(OC[C@@H](O)CO)ccc1CNC(=O)c1sc(C)c2c1C[C@@H]1[C@H]2C1(C)C", "note": "[Example 7, (1aS,5aR)-1,1,2-Trimethyl-1,1a,5,5a-tetrahydro-3-thia-cyclopropa[a]pentalene-4-carboxylic acid 4-((S)-2,3-dihydroxy-propoxy)-2-methoxy-benzylamide]", "EC50": 183}, {"smiles": "COc1cc(OCCF)ccc1CNC(=O)c1sc(C)c2c1C[C@@H]1[C@H]2C1(C)C", "note": "[Example 36, (1aS,5aR)-1,1,2-Trimethyl-1,1a,5,5a-tetrahydro-3-thia-cyclopropa[a]pentalene-4-carboxylic acid 4-(2-fluoro-ethoxy)-2-methoxy-benzylamide]", "EC50": 300}, {"smiles": "COc1ccccc1CCC(=O)c1sc(C)c2c1C[C@@H]1[C@H]2C1(C)C", "note": "[Example 48, 3-(2-methoxy-phenyl)-1-((1aS,5aR)-1,1,2-trimethyl-1,1a,5,5a-tetrahydro-3-thia-cyclopropa[a]penta-len-4-yl)-propan-1-one]", "EC50": 16}, {"smiles": "COc1cc(OC[C@@H](O)CO)ccc1CCC(=O)c1sc(C)c2c1C[C@@H]1[C@H]2C1(C)C", "note": "[Example 49, 3-[4-((S)-2,3-Dihydroxy-propoxy)-2-methoxy-phenyl]-1-((1aS,5aR)-1,1,2-trimethyl-1,1a,5,5a-tetrahydro-3-thia-cyclopropa[a]pentalen-4-yl)-propan-1-one]", "EC50": 2}, {"smiles": "Cc1cc(CCC(=O)c2sc(C)c3c2C[C@@H]2[C@H]3C2(C)C)cc(Cl)c1OC[C@H](O)CO", "note": "[Example 71, 3-[3-Chloro-4-((R)-2,3-dihydroxy-propoxy)-5-methyl-phenyl]-1-((1aS,5aR)-1,1,2-trimethyl-1,1a,5,5a-tetrahydro-3-thia-cyclopropa[a]pentalen-4-yl)-propan-1-one]", "EC50": 1}, {"smiles": "Cc1cc(CCC(=O)c2sc(C)c3c2C[C@@H]2[C@H]3C2(C)C)cc(Cl)c1OCC(C)O", "note": "(stereo partly drawn) [Example 74, 3-[3-Chloro-4-(2-hydroxy-propoxy)-5-methyl-phenyl]-1-((1aS,5aR)-1,1,2-trimethyl-1,1a,5,5a-tetrahydro-3-thia-cyclopropa[a]pentalen-4-yl)-propan-1-one]", "EC50": 5}, {"smiles": "Cc1sc(C(=O)CCc2ccc(OC[C@@H](O)CO)cc2Cl)c2c1[C@H]1[C@@H](C2)C1(C)C", "note": "[Example 81, 3-[2-Chloro-4-((S)-2,3-dihydroxy-propoxy)-phenyl]-1-((1aS,5aR)-1,1,2-trimethyl-1,1a,5,5a-tetrahydro-3-thia-cyclopropa[a]pentalen-4-yl)-propan-1-one]", "EC50": 3}, {"smiles": "CCc1sc(C(=O)CCc2cc(C)c(OC[C@@H](O)CO)c(C)c2)c2c1[C@@H]1[C@H](C2)C1(C)C", "note": "[Example 137, 3-[4-((S)-2,3-Dihydroxy-propoxy)-3,5-dimethyl-phenyl]-1-((1aR,5aS)-2-ethyl-1,1-dimethyl-1,1a,5,5a-tetrahydro-3-thia-cyclopropa[a]pentalen-4-yl)-propan-1-one]", "EC50": 0.6}, {"smiles": "CCc1sc(C(=O)CCc2cc(C)c(OCCCO)c(C)c2)c2c1[C@@H]1[C@H](C2)C1(C)C", "note": "[Example 139, 1-((1aR,5aS)-2-Ethyl-1,1-dimethyl-1,1a,5,5a-tetrahydro-3-thia-cyclopropa[a]pentalen-4-yl)-3-[4-(3-hydroxy-propoxy)-3,5-dimethyl-phenyl]-propan-1-one]", "EC50": 4}, {"smiles": "Cc1cc(C)cc(NCC(=O)c2sc(C)c3c2C[C@@H]2[C@H]3C2(C)C)c1", "note": "[Example 157, 2-(3,5-Dimethyl-phenylamino)-1-((1aS,5aR)-1,1,2-trimethyl-1,1a,5,5a-tetrahydro-3-thia-cyclopropa[a]pentalen-4-yl)-ethanone]", "EC50": 9}, {"smiles": "Cc1sc(C(=O)CNc2ccc(CCO)cc2)c2c1[C@H]1[C@@H](C2)C1(C)C", "note": "[Example 163, 2-[4-(2-Hydroxy-ethyl)-phenylamino]-1-((1aS,5aR)-1,1,2-trimethyl-1,1a,5,5a-tetrahydro-3-thia-cyclopropa[a]pentalen-4-yl)-ethanone]", "EC50": 3}]}, {"system": "circulating lymphocytes", "test": "Assessment of in vivo efficacy: circulating lymphocytes after oral administration", "conditions": "3 h after oral administration of 30 mg/kg, normotensive male Wistar rats, compared to vehicle group; mean±SEM", "experimental": "The efficacy of the compounds of Formula (I) is assessed by measuring the circulating lymphocytes after oral administration of 30 mg/kg of a compound of Formula (I) to normotensive male Wistar rats. The animals are housed in climate-controlled conditions with a 12 h-light/dark cycle, and have free access to normal rat chow and drinking water. […] Full blood is subjected to hematology using Advia Hematology system (Bayer Diagnostics, Zürich, Switzerland).\nAll data are presented as mean±SEM. Statistical analyses are performed by analysis of variance (ANOVA) using Statistica (StatSoft) and the Student-Newman-Keuls procedure for multiple comparisons. The null hypothesis is rejected when p<0.05.", "units": {"Lymphocyte counts": "%"}, "values": [{"smiles": "COc1cc(OCC(C)O)ccc1CNC(=O)c1sc(C)c2c1C[C@@H]1[C@H]2C1(C)C", "note": "(mixture of isomers) [Example 24, (1aS,5aR)-1,1,2-trimethyl-1,1a,5,5a-tetrahydro-3-thia-cyclopropa[a]pentalene-4-carboxylic acid 4-((R/S)-2-hydroxy-propoxy)-2-methoxy-benzylamide]", "Lymphocyte counts": "−40 ± 4"}, {"smiles": "COc1cc(OC[C@@H](O)CO)ccc1CNC(=O)c1sc(C)c2c1C[C@@H]1[C@H]2C1(C)C", "note": "[Example 7, (1aS,5aR)-1,1,2-Trimethyl-1,1a,5,5a-tetrahydro-3-thia-cyclopropa[a]pentalene-4-carboxylic acid 4-((S)-2,3-dihydroxy-propoxy)-2-methoxy-benzylamide]", "Lymphocyte counts": "−46 ± 3"}, {"smiles": "Cc1cc(CCC(=O)c2sc(C)c3c2C[C@@H]2[C@H]3C2(C)C)cc(C)c1OC[C@@H](O)CO", "note": "[Example 51, 3-[4-((S)-2,3-Dihydroxy-propoxy)-3,5-dimethyl-phenyl]-1-((1aS,5aR)-1,1,2-trimethyl-1,1a,5,5a-tetrahydro-3-thia-cyclopropa[a]pentalen-4-yl)-propan-1-one]", "Lymphocyte counts": "−44 ± 4"}, {"smiles": "Cc1sc(C(=O)CCc2ccc(OC[C@@H](O)CO)c(Cl)c2)c2c1[C@H]1[C@@H](C2)C1(C)C", "note": "[Example 75, 3-[3-Chloro-4-((S)-2,3-dihydroxy-propoxy)-phenyl]-1-((1aS,5aR)-1,1,2-trimethyl-1,1a,5,5a-tetrahydro-3-thia-cyclopropa[a]pentalen-4-yl)-propan-1-one]", "Lymphocyte counts": "−57 ± 5"}, {"smiles": "Cc1cc(CCC(=O)c2sc(C)c3c2C[C@@H]2[C@H]3C2(C)C)ccc1OC[C@@H](O)CO", "note": "[Example 86, 3-[4-((S)-2,3-Dihydroxy-propoxy)-3-methyl-phenyl]-1-((1aS,5aR)-1,1,2-trimethyl-1,1a,5,5a-tetrahydro-3-thia-cyclopropa[a]pentalen-4-yl)-propan-1-one]", "Lymphocyte counts": "−47 ± 4"}]}]}
